The record followed here is BindingDB's records for doi:10.1021/jm00100a013 (Medical University of South Carolina, 1992).

Each structure is given as a SMILES string.

The test deals with Folylpolyglutamate synthase (Sus scrofa). Put plainly: Inhibitory activity against hog liver Folyl polyglutamate synthetase (FPGS).
The term Ki denotes the equilibrium dissociation constant of an inhibitor or competing ligand from its target. Low values mean higher affinity, high ones lower affinity. In turn, `NCCCC(NC(=O)c1ccc(NCc2ccc3nc(N)[nH]c(=O)c3c2C(F)(F)F)cc1)C(=O)O` (centres undefined) registered a Ki of 8.8 nM.

`NCCCC(NC(=O)c1ccc(CNc2ccc3nc(N)[nH]c(=O)c3c2Cl)cc1)C(=O)O` (centres undefined) gave a Ki of 500 nM.

In turn, `NCCCC(NC(=O)c1ccc(CNc2ccc3nc(N)[nH]c(=O)c3c2F)cc1)C(=O)O` (centres undefined) yielded a Ki of 900 nM.

`NCCCC(NC(=O)c1ccc(CNc2ccc3nc(N)[nH]c(=O)c3c2C(F)(F)F)cc1)C(=O)O` (centres undefined) came in with a Ki of 11 nM.
